Results: US20240139221A1, “TREATMENT OF HPV-INDUCED NEOPLASIA” (priority 2022, published 2024)
Where two headings read alike, the source gives them in different places.

Key:
[1] = Approximate solubility in solvents at 25° C. and 50° C., visual observation; type: physicochemical; details: thermodynamic from solid
Method: The maximum volume of each solvent added was 1 mL. Approximate solubility was determined by visual observation.
Maximum volume of each solvent added was 1 mL. Approximate solubility was determined by visual observation.

[2] = Hygroscopicity by DVS at 25° C.; type: physicochemical; details: DVS 25° C.; for D. (%) Cycle 1: Desorption cycle 1; for D. (%) Cycle 2: Desorption cycle 2; for S. (%) Cycle 1: Sorption cycle 1
Method: Hygroscopicity was investigated by DVS at 25° C., using the following method: […]

Compound: CCOC(=O)[C@H](C)NP(=O)(COCCn1cnc2c(OC)nc(N)nc21)OCc1ccccc1.O=C(O)/C=C/C(=O)O (mixture of isomers) [Compound I monofumarate, (±)-(2S)-Ethyl-2-((((2-(2-amino-6-methoxy-9H-purin-9-yl)-ethoxy)-methyl)-(benzyloxy)-phosphoryl)-amino)-propionate monofumarate]
- solubility ([1]; 25 °C, organic solvent or mixture, Table 14, ACN, 25° C., read-out: Solubility (mg/mL) 25° C.): 20 to 25 mg/mL
- solubility ([1]; 25 °C, organic solvent or mixture, Table 14, Acetone, 25° C., read-out: Solubility (mg/mL) 25° C.): 50 to 100 mg/mL
- solubility ([1]; 25 °C, organic solvent or mixture, Table 14, DCM, 25° C., read-out: Solubility (mg/mL) 25° C.): < 2 mg/mL
- solubility ([1]; 25 °C, organic solvent or mixture, Table 14, EA, 25° C., read-out: Solubility (mg/mL) 25° C.): < 2 mg/mL
- solubility ([1]; 25 °C, organic solvent or mixture, Table 14, EtOH, 25° C., read-out: Solubility (mg/mL) 25° C.): > 100 mg/mL
- solubility ([1]; 25 °C, organic solvent or mixture, Table 14, Heptanes, 25° C., read-out: Solubility (mg/mL) 25° C.): < 2 mg/mL
- solubility ([1]; 25 °C, organic solvent or mixture, Table 14, IPA, 25° C., read-out: Solubility (mg/mL) 25° C.): 50 to 100 mg/mL
- solubility ([1]; 25 °C, organic solvent or mixture, Table 14, IPAc, 25° C., read-out: Solubility (mg/mL) 25° C.): < 2 mg/mL
- solubility ([1]; 25 °C, organic solvent or mixture, Table 14, MEK, 25° C., read-out: Solubility (mg/mL) 25° C.): 20 to 25 mg/mL
- solubility ([1]; 25 °C, organic solvent or mixture, Table 14, MTBE, 25° C., read-out: Solubility (mg/mL) 25° C.): < 2 mg/mL
- solubility ([1]; 25 °C, organic solvent or mixture, Table 14, MeOH, 25° C., read-out: Solubility (mg/mL) 25° C.): > 100 mg/mL
- solubility ([1]; 25 °C, organic solvent or mixture, Table 14, THF, 25° C., read-out: Solubility (mg/mL) 25° C.): > 100 mg/mL
- solubility ([1]; 25 °C, organic solvent or mixture, Table 14, Toluene, 25° C., read-out: Solubility (mg/mL) 25° C.): < 2 mg/mL
- solubility ([1]; 25 °C, water, Table 14, Water, 25° C., read-out: Solubility (mg/mL) 25° C.): 14 to 17 mg/mL
- solubility ([1]; 50 °C, organic solvent or mixture, Table 14, ACN, 50° C., read-out: Solubility (mg/mL) 50° C.): 20 to 33 mg/mL
- solubility ([1]; 50 °C, organic solvent or mixture, Table 14, Acetone, 50° C., read-out: Solubility (mg/mL) 50° C.): 125 to 167 mg/mL
- solubility ([1]; 50 °C, organic solvent or mixture, Table 14, DCM, 50° C., read-out: Solubility (mg/mL) 50° C.): < 10 mg/mL
- solubility ([1]; 50 °C, organic solvent or mixture, Table 14, EA, 50° C., read-out: Solubility (mg/mL) 50° C.): < 10 mg/mL
- solubility ([1]; 50 °C, organic solvent or mixture, Table 14, EtOH, 50° C., read-out: Solubility (mg/mL) 50° C.): 250 to 500 mg/mL
- solubility ([1]; 50 °C, organic solvent or mixture, Table 14, Heptanes, 50° C., read-out: Solubility (mg/mL) 50° C.): < 10 mg/mL
- solubility ([1]; 50 °C, organic solvent or mixture, Table 14, IPA, 50° C., read-out: Solubility (mg/mL) 50° C.): 71 to 84 mg/mL
- solubility ([1]; 50 °C, organic solvent or mixture, Table 14, IPAc, 50° C., read-out: Solubility (mg/mL) 50° C.): < 10 mg/mL
- solubility ([1]; 50 °C, organic solvent or mixture, Table 14, MEK, 50° C., read-out: Solubility (mg/mL) 50° C.): 22 to 25 mg/mL
- solubility ([1]; 50 °C, organic solvent or mixture, Table 14, MTBE, 50° C., read-out: Solubility (mg/mL) 50° C.): < 10 mg/mL
- solubility ([1]; 50 °C, organic solvent or mixture, Table 14, MeOH, 50° C., read-out: Solubility (mg/mL) 50° C.): > 500 mg/mL
- solubility ([1]; 50 °C, organic solvent or mixture, Table 14, THF, 50° C., read-out: Solubility (mg/mL) 50° C.): 250 to 500 mg/mL
- solubility ([1]; 50 °C, organic solvent or mixture, Table 14, Toluene, 50° C., read-out: Solubility (mg/mL) 50° C.): < 10 mg/mL
- solubility ([1]; 50 °C, water, Table 14, Water, 50° C., read-out: Solubility (mg/mL) 50° C.): 22 to 25 mg/mL
- D. (%) Cycle 1 ([2]; 0% RH): 0.49%
- D. (%) Cycle 1 ([2]; 10% RH): 0.62%
- D. (%) Cycle 1 ([2]; 20% RH): 0.71%
- D. (%) Cycle 1 ([2]; 30% RH): 0.81%
- D. (%) Cycle 1 ([2]; 40% RH): 0.93%
- D. (%) Cycle 2 ([2]; 0% RH): 0.09%
- D. (%) Cycle 2 ([2]; 10% RH): 0.15%
- D. (%) Cycle 2 ([2]; 20% RH): 0.35%
- D. (%) Cycle 2 ([2]; 30% RH): 0.47%
- D. (%) Cycle 2 ([2]; 40% RH): 0.56%
- D. (%) Cycle 2 ([2]; 50% RH): 0.67%
- D. (%) Cycle 2 ([2]; 60% RH): 0.85%
- D. (%) Cycle 2 ([2]; 70% RH): 1.04%
- D. (%) Cycle 2 ([2]; 80% RH): 1.30%
- D. (%) Cycle 2 ([2]; 90% RH): 1.84%
- D. (%) Cycle 2 ([2]; 95% RH): 2.89%
- S. (%) Cycle 1 ([2]; 0% RH): 0.49%
- S. (%) Cycle 1 ([2]; 10% RH): 0.56%
- S. (%) Cycle 1 ([2]; 20% RH): 0.66%
- S. (%) Cycle 1 ([2]; 30% RH): 0.76%
- S. (%) Cycle 1 ([2]; 40% RH): 0.86%
